Here are results for 6 compounds from patent publication US8969400B2, “Pharmaceutical compositions of 5-hydroxytryptophan and serotonin-enhancing compound” (Duke University, priority 2007, dated 2015).

Assay type in all cases: in vivo, mouse
The test system of experiment [1] is C57Bl/6j mice. In words: Tail suspension test in C57 mice. The following applies: single drug i.p. 30 min prior to test, 6 min test. The text has this: Drug candidates can be screened for antidepressant-like activity by using animal models. In the tail suspension test the mouse is suspended by its tail. The mouse will initially move and struggle but will with time become increasingly immobile. Pretreatment with a clinically effective antidepressant decreases the time spent immobile. This includes selective serotonin re-uptake inhibitors (SSRIs) and drugs inhibiting the noradrenaline reuptake mechanism, as well as some putative antidepressants with non-monoamine pharmacology. […] In animal models of depression, including the tail suspension test, mouse strains differ considerably in their responsiveness to antidepressants. […]
The tail suspension test employed was a modified version to that described elsewhere. […] The duration of immobility was measured using an automated system (Med Associates, USA) during the 6 min testing period.
(§1) Tail suspension data were analyzed either using one-way ANOVA (single-drug treatments) or two-way ANOVA (paroxetine/5-HTP and citalopram/5-HTP) with Dunnets post-hoc test. Locomotor activity data were analyzed using two-way ANOVA with Dunnets post-hoc test. Tissue 5-HT data were analyzed using students t-test. Microdialysis 5-HT data were analyzed using two-way repeated measures ANOVA with Dunnets post-hoc test.

Experiment [2] relates to NMRI mice. Description: Tail suspension test in NMRI mice. Particulars: single drug i.p. 30 min prior to test, 6 min test. The text has this: Drug candidates can be screened for antidepressant-like activity by using animal models. In the tail suspension test the mouse is suspended by its tail. The mouse will initially move and struggle but will with time become increasingly immobile. Pretreatment with a clinically effective antidepressant decreases the time spent immobile. This includes selective serotonin re-uptake inhibitors (SSRIs) and drugs inhibiting the noradrenaline reuptake mechanism, as well as some putative antidepressants with non-monoamine pharmacology. […] In animal models of depression, including the tail suspension test, mouse strains differ considerably in their responsiveness to antidepressants. This may parallel the clinical situation where a considerable subset of patients is refractory to pharmacotherapy. […] In our laboratory mice of the NMRI strain consistently fails to repond to SSRIs in the tail suspension test of antidepressant activity, while C57 mice show a strong response (FIG. 1). Male NMRI and C57Bl/6j mice (Taconic Europe, St. […]) weighing 25-35 g were housed and habituated for at least 7 days before the experiments in Macrolon III cages (20×40×18 cm) with eight mice per cage. Chow and water were available ad libitum, with lights on at 6 a.m. and off at 6 p.m. All behavioral testing was conducted during the light phase. […] All drugs were administered i.p. in saline in a volume of 10 ml/kg. In the tail suspension and locomotor activity experiments drugs were injected 30 min prior to test. The tail suspension test employed was a modified version to that described elsewhere. Mice were suspended individually by the tail using adhesive tape (attached 2 cm from tip of the tail) to a hook attached to a strain gauge and left there for 6 min. The duration of immobility was measured using an automated system (Med Associates, USA) during the 6 min testing period. Tail suspension data were analyzed either using one-way ANOVA (single-drug treatments) or two-way ANOVA (paroxetine/5-HTP and citalopram/5-HTP) with Dunnets post-hoc test. Locomotor activity data were analyzed using two-way ANOVA with Dunnets post-hoc test. Tissue 5-HT data were analyzed using students t-test. Microdialysis 5-HT data were analyzed using two-way repeated measures ANOVA with Dunnets post-hoc test.

In experiment [3] the test system is extracellular 5-HT. In words: Microdialysis of extracellular 5-HT in frontal cortex, NMRI mice. The following applies: citalopram 20 mg/kg, 5-HTP 12.5 mg/kg. The protocol: (§2) Male NMRI and C57Bl/6j mice (Taconic Europe, St. Laven, DK) weighing 25-35 g were housed and habituated for at least 7 days before the experiments in Macrolon III cages (20×40×18 cm) with eight mice per cage. Chow and water were available ad libitum, with lights on at 6 a.m. and off at 6 p.m. All behavioral testing was conducted during the light phase.
Microdialysis were performed in freely moving mice as previously described in Jacobsen J P et al.; Neuroscience 2005; 132:1055-1072. The flowrate was 1 ul/min and 20 min samples were collected. Four baseline samples were collected whereafter saline, 5-HTP (12.5 mg/kg), citalopram (20 mg/kg) or citalopram+5-HTP were injected and six additional samples where collected. Samples were collected on ice, immediatedly frozen on dry ice and stored at −80° C. until analysis by HPLC-EC.
(§3) 5-HT in tissue and microdialysis samples were analysed using HPLC-EC as previously described in Weikop P et al.; Eur Neuropsychopharmacol 2007; 17:658-671.
as §1

The subject of experiment [4] is brain 5-HT. Description: Tissue 5-HT in frontal cortex and hippocampus of NMRI mice (HPLC-EC). Particulars: acute administration. The protocol: as §2
Fluoxetine HCl, desipramine HCL, 5-hydroxytryptamine, citalopram HBr, paroxetine HCl, reboxetine fumarate and duloxetine oxalate. All drugs were administered i.p. in saline in a volume of 10 ml/kg. In the tail suspension and locomotor activity experiments drugs were injected 30 min prior to test.
Mice killed by cervical dislocation and the frontal cortex and hippocampus rapidly dissected, frozen on dry ice and stored at −80° C. until analysis by HPLC-EC.
as §3, §1

With `CNCCCN1c2ccccc2CCc2ccccc21` [desipramine], the results for the “immobility in tail suspension test” value in experiment [1] and in experiment [2] were “decreased immobility” and “reduced immobility”, respectively.
On to `N[C@@H](Cc1c[nH]c2ccc(O)cc12)C(=O)O` [5-HTP, 5-hydroxytryptophan], for which the “increase in extracellular 5-HT in the frontal cortex” value in experiment [3] is listed as “only a modest increase”. The “immobility in tail suspension test” value in experiment [2] is “did not affect immobility”. Also, in experiment [4] (frontal cortex tissue), the “5-HT levels ± sem, Frontal Cortex” value is 122 ± 3.3 % of saline. Also, in experiment [4] (hippocampus tissue), the “5-HT levels ± sem, Hippocampus” value is 83.4 ± 2.6 % of saline. Besides, in experiment [4] (vs saline), the “decrease of tissue 5-HT in the hippocampus” value was determined as 17% and the “increase of tissue 5-HT in the frontal cortex” value is 22%.
As for `Fc1ccc([C@@H]2CCNC[C@H]2COc2ccc3c(c2)OCO3)cc1` [paroxetine], the “immobility in tail suspension test” value in experiment [2] is “without effect”.
Regarding `CNCC[C@H](Oc1cccc2ccccc12)c1cccs1` [duloxetine], in experiment [2], the “immobility in tail suspension test” value is recorded as “reduced immobility”.
Take `CCOc1ccccc1OC(c1ccccc1)C1CNCCO1` (stereo not shown) [reboxetine]: the “immobility in tail suspension test” value in experiment [1] was “decreased immobility”; in experiment [2] it was “reduced immobility”.
Regarding `CNCCC(Oc1ccc(C(F)(F)F)cc1)c1ccccc1` (stereo not shown) [fluoxetine], in experiment [2], the “immobility in tail suspension test” value is recorded as “without effect”.
